According to patent US20250134897A1, “PREPARATION OF IS[…] KETO[…] METHODS OF HYPERPO[…] SIGNAL AMP[…] […] (SABRE)” (The United States of America,as represented by the …, priority 2022, published 2025):

How the values were obtained:
[1] = SABRE-SHEATH 13C hyperpolarization, single-scan 13C NMR; format: physicochemical; settings: 10 mM substrate, 45 mM DMSO, 7.8 mM Ir-IMes catalyst in methanol-d4; 55 s p-H2 bubbling at BT=−0.2 μT; ~50% p-H2; acquired after transfer to 1 T
Description: Ultra-high-purity hydrogen gas (Airgas) was fed into a Para-Hydrogen (pH2) flow cryostat (Xeus technology LTD) and enriched to about 50% parahydrogen in the presence of a spin-exchange catalyst (Fe2O3) at liquid nitrogen temperature (77 K). The pH2 flow was directed via PTFE tubing to a mass flow controller (MFC, Sierra Instruments SmartTrak 100 series) set at 90 ssc/m and directed to a conventional 5 mm NMR tube (Norell) to allow bubbling through the sample. The entire pH2 line was pressurized to 96 psi.
At least once a day, the shield was degaussed using internal coils driven by a Variac. The solenoid has 41 mm diameter (40 mm core, 20 cm long windings with 220 turns AWG20 (0.9 mm) Cu wire and with 220Ω resistor in series. The solenoid coil was driven by commercial 1.5V batteries with a variable-resistance decade box in series to provide finer control of the internal magnetic field inside the shield. Typical values of the field within the shield were between […], with SABRE SHEATH experiments typically between 0.5 μT and 0.8 μT in the sample region. The values were monitored between SABRE experiments using a Lakeshore Cryotronics Gaussmeter (Model No. 475 DSP with HMMA-2512-VR Hall Probe.
NMR experiments were performed using a 1 T Magritek Spinsolve benchtop NMR spectrometer. […]

[2] = 13C-1 spin-lattice relaxation time (T1) at 3 T MRI system; format: physicochemical; settings: 3 T MRsolution MRI system, solutions of DPBS with EDTA

Row | SMILES | polarization P(13C) [1] [%] | T1 after flip angle correction (spin-lattice relaxation time) [2] [s] | apparent T1 (spin-lattice relaxation time) ([2]; without flip angle correction) [s]
1 | O=C(CC[12C](=O)[O-])[13C](=O)[O-].[Na+].[Na+] [sodium [1-^13C] Ketoglutarate, sodium 2-Oxopentanedioate-5-^12C-1-^13C] | ~0.24 |  | 
2 | O=C(O)CCC(=O)C(=O)O [2-Oxopentanedioic-5-^12C-1-^13C acid] |  | 63.0 ± 0.835 | 32.1 ± 0.824
